According to PMC10305115, “Development of a Minimalistic Physiologically Based Pharmacokinetic (mPBPK) Model for the Preclinical Development of Spectinamide Antibiotics” (Pharmaceutics, 2023):
Read-outs that look alike come from different tables or passages of the source.

Tests used:
[1] = Parallel artificial membrane permeability assay (PAMPA); format: in vitro ADME; details: passive permeability could not be determined
[2] = Fraction unbound in epithelial lining fluid calculated by Poulin and Theil equation, mouse; details: epithelial lining fluid (calculated), calculated from fu in plasma and albumin ratio plasma/ELF, read-out: fuELF fraction unbound in epithelial lining fluid
Procedure: (§1) For intravenous administration, the bolus dose was assumed to be mixed instantaneously into the venous blood. For subcutaneous administration, the dose was administered as an external compartment, absorbed into the venous compartment via a first-order absorption rate constant and a bioavailability component. For intrapulmonary aerosol administration, we have modified the lung tissue by adding the epithelial lining fluid (ELF) sub-compartment, as shown in Figure 2. The physiological volume of the ELF sub-compartment was obtained from the literature. The dose was administered as an external compartment, absorbed into the ELF compartment via a first-order absorption rate constant and a bioavailability component. The compound was assumed to be bound to the ELF proteins, and only the unbound fraction was distributed to the other sub-compartments of the lungs and ultimately to the systemic circulation. The fraction unbound in ELF was calculated from the fraction unbound in plasma and the albumin ratio between plasma and ELF using the equation described by Poulin and Theil.

[3] = Fraction unbound in epithelial lining fluid calculated by Poulin and Theil equation, rat; details: epithelial lining fluid (calculated), calculated from fu in plasma and albumin ratio plasma/ELF, read-out: fuELF fraction unbound in epithelial lining fluid
Procedure: as §1

[4] = Minimalistic PBPK model, mouse (fitting and simulation)
[5] = Plasma protein binding by equilibrium dialysis (RED device), rat plasma; format: in vitro ADME, Sprague-Dawley rats; details: Sprague-Dawley, 0.5 and 5 mg/L, 37 °C, read-out: fuPlasma fraction unbound in plasma
Procedure: (§2) Plasma protein binding was measured by equilibrium dialysis using a RED device (8 kDa molecular cutoff; Thermo Scientific, Rockford, IL, USA) containing plasma and buffer chambers for dialysis and a base plate. Two concentrations (0.5 and 5 mg/L) of 1599 and 1810 were prepared in mouse plasma from BALB/c mice and rat plasma from Sprague-Dawley rats, and an aliquot of 300 µL was added in the plasma chamber in duplicate. A 500 µL aliquot of PBS was added in the buffer chamber for dialysis. Then, the base plate was covered with sealing tape and incubated at 37 °C at approximately 100 rpm on an orbital shaker for 4 h to achieve equilibrium. After incubation, 50 µL of each sample was pipetted from the plasma and buffer chambers into separate micro-centrifuge tubes. A total of 50 µL of plasma was added to the buffer samples and an equal volume of PBS to the collected plasma samples and vortexed. Samples were processed by protein precipitation and analyzed for bound and unbound drug concentrations by liquid chromatography-tandem mass spectrometry (LC-MS/MS). Ranitidine (0.5 and 5 mg/L) was included as a positive control. The fraction of compound unbound to plasma proteins (fu) was calculated from the measured concentrations in the plasma and buffer chambers using the following equation:(1) fu=1−C(Plasma Chamber)−C(Buffer Chamber)/C(Plasma Chamber)

[6] = cited from earlier work; for AUCinf Liver Observed / AUCinf Lung Observed / AUCinf Observed / AUCinf Spleen Observed: healthy mice; for AUCinf Observed: plasma
[7] = system: plasma proteins; experiment: Plasma protein binding by equilibrium dialysis (RED device), mouse plasma; format: in vitro ADME, BALB/c mice; details: mouse and rat
Procedure: as §2

[8] = as above; format: in vitro ADME, BALB/c mice; details: BALB/c; Mouse plasma, 0.5 and 5 mg/L, 37 °C, 4 h; read-out: fuPlasma fraction unbound in plasma
Procedure: as §2

[9] = in vivo; details: mouse
[10] = Subcutaneous PBPK model predictions vs observed plasma concentrations in Mtb infected mice; format: in vivo, BALB/c mice; details: SC dose-ranging and dose-fractionation studies
[11] = Integrated mouse and rat PBPK model, inter-animal variability; details: Intravenous Estimate (%RSE); simultaneous fit of mouse and rat plasma and tissue data
[12] = Pharmacokinetic studies in healthy rats; format: in vivo; details: male, Sprague-Dawley, rat, plasma, IV SD 10 mg/kg, generated in this study, read-out: AUCinf Observed
Procedure: Urine samples were collected at predetermined time intervals (0–6, 6–10, 10–24, 24–48 h) up to 48 h after dosing, volumes were recorded, and samples were processed by protein precipitation and analyzed by LC-MS/MS. The fraction of drug excreted unchanged (fe) in urine at each time interval and a cumulative fe were calculated.
An additional single dose intravenous study of spectinamide 1599 with destructive sampling was performed to obtain the tissue PK profiles in rats. In this study, groups of four rats (two male and two female) were euthanized either at 15 min or at 4 h after dosing, and blood, lung, liver, spleen, and kidneys were collected. For tissue samples, the tissues were weighed and homogenized in four volumes of phosphate buffered saline (1× PBS) and stored at −70 °C until LC-MS/MS analysis.
Sample preparation was performed by protein precipitation using methanol. […]
An API 4500 triple quadruple mass spectrometer (Applied Biosystems, Foster City, CA, USA) equipped with a turbospray ion source was operated in the positive ion mode. Selected reaction monitoring using precursor→product ion combinations of m/z 487.2→207.1, 418→207.1, and 365.1→333.2 was used for quantification of spectinamides 1599, 1810 and the IS spectinomycin, respectively.

[13] = Intravenous Estimate (%RSE), model fitted to IV single dose 10 mg/kg plasma and tissue data

With CN[C@@H]1[C@H](O)[C@H](NC)[C@H]2O[C@]3(O)[C@H](O[C@@H]2[C@H]1O)O[C@H](C)C[C@H]3NC(=O)Cc1ccc(O)cn1 [Spectinamide 1810, 2-(5-hydroxypyridin-2-yl)-N-((2R,4R,4aS,5aR,6S,7S,8R,9S,9aR,10aS)-4a,7,9-trihydroxy-2-methyl-6,8-bis(methylamino)decahydro-2H-benzo[b]pyrano [2,3-e] [1,4]dioxin-4-yl)acetamide] the “PAMPA concentrations in the acceptor compartment” value [1] was “below the limit of detection”, the fraction unbound [2] was 0.965 and the fraction unbound [3] was 0.95. For the same molecule, the “KC→IKidney 1st order back flux from cellular sub compartment of the kidney” value [4, 13] was 0.097 (45.1) 1/h, the “KC→ILiver 1st order back flux from cellular sub compartment of the liver” value [4, 13] was 0.051 (17.2) 1/h and the “KC→ILung 1st order back flux from cellular sub compartment of the lung” value [4, 13] was 0.076 (17.6) 1/h. The “KC→ISpleen 1st order back flux from cellular sub compartment of the spleen” value [4, 13] was 0.013 (120) 1/h, the “KC→Iothers 1st order back flux from cellular sub compartment of the other tissues” value [4, 13] was 7.0 × 10^−5 (0.00278) 1/h and the “Ka 1st order absorption rate constant” value ([4]; Subcutaneous Estimate (%RSE), healthy mice) was 8.26 (14.5). The fraction unbound at 4 h [5] was 0.607, the “dose dependency of disposition” value ([6]; dose range of 10 to 400 mg/kg in mice) was “did not suggest any dose dependencies” and the “AUCinf Liver Observed” value ([6]; IV QD5 10 mg/kg) was 51.2 µg·h/g. The “AUCinf Liver Observed” value ([6]; IV SD 10 mg/kg) was 31.6 µg·h/g, the “AUCinf Lung Observed” value ([6]; IV QD5 10 mg/kg) was 11.2 µg·h/g and the “AUCinf Lung Observed” value ([6]; IV SD 10 mg/kg) was 5.75 µg·h/g. The “AUCinf Observed” value ([6]; IV QD5 10 mg/kg) was 9.45 µg·h/mL, the “AUCinf Observed” value ([6]; IV SD 10 mg/kg) was 7.91 µg·h/mL and the “AUCinf Observed” value ([6]; SC QD5 50 mg/kg) was 65.5 µg·h/mL. For the same molecule, the “AUCinf Observed” value ([6]; SC QD5 200 mg/kg) was 265 µg·h/mL, the “AUCinf Observed” value ([6]; SC SD 46 mg/kg) was 38.6 µg·h/mL and the “AUCinf Observed” value ([6]; SC SD 50 mg/kg) was 67.9 µg·h/mL. The “AUCinf Observed” value ([6]; SC SD 200 mg/kg) was 267 µg·h/mL, the “AUCinf Spleen Observed” value ([6]; IV QD5 10 mg/kg) was 9.45 µg·h/g and the “AUCinf Spleen Observed” value ([6]; IV SD 10 mg/kg) was 4.29 µg·h/g. The “plasma protein binding” value [7] was “low plasma protein binding”, the fraction unbound at 4 h [8] was 0.693 and the half-life [9] was 5 min. For the same molecule, the bioavailability ([9]; sc) was 100%, the “difference in pharmacokinetics between healthy and infected mice” value [10] was “no significant difference” and the “ω KI→COther inter-animal variability on KI→COthers” value [11] was 0.31 (14.7). For the same molecule, the AUC(0-inf) [12] was 20800 ng·h/mL.
